Data on 3 substances can be found in patent US6391571B1, “Recombinant inactive avidin mutants” (Roche Diagnostics GmbH, priority 1997, dated 2002).

For test [1] the following is noted: native polypeptide, non-covalent complex with biotin; cited from earlier work.
Test [2] deals with monobiotinylated Fab' antibody fragment. Kind of test: Affinity of streptavidin muteins to biotin derivatives, BIAcore system. The conditions noted are these: CM5 biosensor, 25° C. Format: binding. As to the method: The affinity of the streptavidin muteins to biotin derivatives (constants Kon, Koff and KA) was determined in comparison to core streptavidin (wild type streptavidin) using the BIAcore system from the Pharmacia Co. For this the respective streptavidin samples were immobilized on the surface of biosensor chips (CM5 biosensor). The surface loading was selected in such a way that a measurement signal of 500 to 2000 resonance units (rU) was generated. The association kinetics were recorded for 3 min in each case at 25° C. and with 6 concentrations (12.5, 25, 50, 100, 200 and 400 nmol/l ) of a monobiotinylated Fab' antibody fragment. In order to investigate the influence of the reverse binding of the antibody, the dissociation kinetics in the absence and presence of 10 μg/ml core streptavidin were compared. The specificity of the binding was shown by an experiment with the same body in a non-biotinylated form (negative control).
The binding constants were determined for the purified streptavidin muteins as well as for streptavidin muteins cross-linked with a polymer (streptavidin-mutein […] serum albumin conjugates, preparation: EP-A-0 092).
On the technique in general: In SPR one partner is held on a chip, and binding of the other changes the refractive index at the surface.

As for “avidin: native avidin, amino acid sequence SEQ ID NO.4”, in test [1], the “binding affinity to biotin (KA)” value was “about 10^15 l/mol”.
“streptavidin: native streptavidin, protein sequence SEQ ID NO.2”: in test [1], the “binding affinity to biotin (KA)” value was “about 10^15 l/mol”.
Turning to “wild-type: recombinant core streptavidin (shortened streptavidin), SEQ ID NO.16, produced per WO 93/09144”, in test [2] (monobiotinylated Fab'), the KA is >10^10 1/mol and the Koff is <10^−5 1/s. The substance also showed a t/2 diss in test [2] (monobiotinylated Fab', cell prints h) greater than 20 h. In addition, the Kon in test [2] (streptavidin sample immobilized, 12.5-400 nmol/l monobiotinylated Fab') is 2.2.10^5 1/mol.s.
